Data taken from patent US20020133846A1, “Method for protecting plants” (priority 1996, published 2002).
Where two headings read alike, the source gives them in different places.

What was measured:
[1] = system: Peronospora parasitica NoCo2; experiment: whole plant or invertebrate; format: in vivo
[2] = system: Peronospora parasitica isolate Emwa; experiment: Action against Peronospora parasitica in Arabidopsis overexpressing NIM1 (lines 6E, 7C) and wild-type Ws; format: in vivo
Excerpt: The plant lines used in this example (6E and 7C) were generated from transformation of wild-type Arabidopsis thaliana plants (ecotype Ws) with the BamHI-HindIII NIM1 genomic fragment (SEQ ID NO:1—bases 1249-5655), as described above in Example 21. The fungicides metalaxyl, fosetyl, and copper hydroxide, formulated as 25%, 80%, and 70% active ingredient (ai), respectively, with a wettable powder carrier, were applied as fine mist to leaves of three week-old transgenic Ws plants constitutively expressing the NIM1 gene. The wettable powder alone was applied as a control. Three days later, plants were inoculated with a Peronospora parasitica isolate Emwa conidial suspension (1-2×10^5 spores/ml), as described in Delaney et al. (1995). Following inoculation, plants were covered to maintain high humidity and were placed in a Percival growth chamber at 17° C. with a 14-hr day/10-hr night cycle (Uknes et al., 1993). Tissue was harvested 8 days after inoculation.
Fungal infection progression was followed for 12 days by viewing under a dissecting microscope to score development of conidiophores (Delaney, et al. (1994); Dietrich, et al. (1994)). Lactophenoltrypan blue staining of individual leaves was carried out to observe fungal growth within leaf tissue. Fungal growth was quantified using a rRNA fungal probe obtained by PCR according to White et al. (1990; PCR Protocols: A guide to Methods and Application, 315-322) using primers NS1 and NS2 and P. parasitica EmWa DNA as templates. RNA was purified from frozen tissue by phenol/chloroform extraction following lithium chloride precipitation (Lagrimini et al, 1987: PNAS, 84: 7542-7546). Samples (7.5 μg) were separated by electrophoresis through formaldehyde agarose gels and blotted to nylon membranes (Hybond-N+, Amersham) as described by Ausbel et al. (1987). Hybridizations and washing were according to Church and Gilbert (1984, PNAS, 81: 1991-1995). Relative amounts of the transcript were determined using a Phosphor Imager (Molecular Dynamics, Sunnyvale, Calif.) following manufacturers instructions. Sample loading was normalized by probing stripped filter blots with the constitutively expressed b-tubulin Arabidopsis cDNA.

[3] = Cu(OH)2 0.02 g/l, NIM1 overexpression line 6E
[4] = Cu(OH)2 0.02 g/l, NIM1 overexpression line 7C
[5] = Cu(OH)2 0.2 g/l, NIM1 overexpression line 6E
[6] = Cu(OH)2 0.2 g/l, NIM1 overexpression line 7C
[7] = Cu(OH)2 2.0 g/l, NIM1 overexpression line 6E
[8] = Cu(OH)2 2.0 g/l, NIM1 overexpression line 7C

SMILES: COCC(=O)N(c1c(C)cccc1C)C(C)C(=O)OC (racemic) [metalaxyl]
- inhibition at 0.02 µg/mL ([1]; Hyaloperonospora parasitica, in Arabidopsis thaliana, read-out: Fungal Growth Inhibition % O (observed), Table 33, cim3 mutant, metalaxyl 0.02 mg/l): 55.6%
- inhibition at 0.1 µg/mL ([1]; Hyaloperonospora parasitica, in Arabidopsis thaliana, read-out: Fungal Growth Inhibition % O (observed), Table 33, cim3 mutant, metalaxyl 0.1 mg/l): 57.8%
- inhibition at 2.5 µg/mL ([1]; Hyaloperonospora parasitica, in Arabidopsis thaliana, read-out: Fungal Growth Inhibition % O (observed), Table 33, cim3 mutant, metalaxyl 2.5 mg/l): 82.2%
- Synergy Factor O/E ([1]; Table 33, cim3 mutation + metalaxyl 0.1 mg/l): 4.6
- Synergy Factor O/E ([1]; Table 33, cim3 mutation + metalaxyl 2.5 mg/l): 6.6
- inhibition at 1.2 µg/mL ([2]; Hyaloperonospora parasitica, in Arabidopsis thaliana, Table 36, NIM1 overexpression line 6E, metalaxyl 0.0012 g/l, read-out: Fungal Growth Inhibition % O (observed)): 56%
- inhibition at 12.5 µg/mL ([2]; Hyaloperonospora parasitica, in Arabidopsis thaliana, Table 36, NIM1 overexpression line 6E, metalaxyl 0.0125 g/l, read-out: Fungal Growth Inhibition % O (observed)): 76%
- Synergy Factor O/E ([2]; Table 36, NIM1 overexpression line 6E + metalaxyl 0.0012 g/l): 1.5
- Synergy Factor O/E ([2]; Table 36, NIM1 overexpression line 6E + metalaxyl 0.0125 g/l): 1.1

SMILES: CCO[PH](=O)O [fosetyl, ethyl hydrogen phosphonate]
- inhibition at 50 µg/mL ([2]; Hyaloperonospora parasitica, in Arabidopsis thaliana, Table 37, NIM1 overexpression line 6E, fosetyl 0.05 g/l, read-out: Fungal Growth Inhibition % O (observed)): 42%
- inhibition at 500 µg/mL ([2]; Hyaloperonospora parasitica, in Arabidopsis thaliana, Table 37, NIM1 overexpression line 6E, fosetyl 0.5 g/l, read-out: Fungal Growth Inhibition % O (observed)): 83%
- inhibition at 500 µg/mL ([2]; Hyaloperonospora parasitica, in Arabidopsis thaliana, fosetyl 0.5 g/l, NIM1 overexpression line 7C, read-out: Fungal Growth Inhibition % O (observed)): 56%
- inhibition at 5000 µg/mL ([2]; Hyaloperonospora parasitica, in Arabidopsis thaliana, read-out: Fungal Growth Inhibition % O (observed), Table 37, NIM1 overexpression line 6E, fosetyl 5.0 g/l): 93%
- inhibition at 5000 µg/mL ([2]; Hyaloperonospora parasitica, in Arabidopsis thaliana, read-out: Fungal Growth Inhibition % O (observed), fosetyl 5.0 g/l, NIM1 overexpression line 7C): 80%
- Synergy Factor O/E ([2]; Table 37, NIM1 overexpression line 6E + fosetyl 0.05 g/l): 4.2
- Synergy Factor O/E ([2]; Table 37, NIM1 overexpression line 6E + fosetyl 0.5 g/l): 6.9
- Synergy Factor O/E ([2]; Table 37, NIM1 overexpression line 6E + fosetyl 5.0 g/l): 5.5
- Synergy Factor O/E ([2]; fosetyl 0.5 g/l, NIM1 overexpression line 7C): 3.5
- Synergy Factor O/E ([2]; fosetyl 5.0 g/l, NIM1 overexpression line 7C): 3.8

SMILES: CSC(=O)c1cccc2nnsc12 [BTH]
- inhibition at 10 µM ([1]; Hyaloperonospora parasitica, in Arabidopsis thaliana, read-out: Fungal Growth Inhibition % O (observed), Table 34, cim3 mutant, BTH 0.01 mM): 16.6%
- inhibition at 30 µM ([1]; Hyaloperonospora parasitica, in Arabidopsis thaliana, read-out: Fungal Growth Inhibition % O (observed), Table 34, cim3 mutant, BTH 0.03 mM): 73.1%
- Synergy Factor O/E ([1]; Table 34, cim3 mutation + BTH 0.01 mM): 1.3
- Synergy Factor O/E ([1]; Table 34, cim3 mutation + BTH 0.03 mM): 2.2

SMILES: [Cu+2].[OH-].[OH-] [Cu(OH)2, copper hydroxide]
- Fungal Growth Inhibition % O (observed) [2, 3]: 20%
- Synergy Factor O/E [2, 3]: 2.0
- Fungal Growth Inhibition % O (observed) [2, 4]: 55%
- Synergy Factor O/E [2, 4]: 3.9
- Fungal Growth Inhibition % O (observed) [2, 5]: 14%
- Synergy Factor O/E [2, 5]: 1.4
- Fungal Growth Inhibition % O (observed) [2, 6]: 51%
- Synergy Factor O/E [2, 6]: 3.6
- Fungal Growth Inhibition % O (observed) [2, 7]: 66%
- Synergy Factor O/E [2, 7]: 6.6
- Fungal Growth Inhibition % O (observed) [2, 8]: 77%
- Synergy Factor O/E [2, 8]: 5.5
- synergy factor ([2]; NIM1 overexpression line 7C + copper hydroxide 2.0 g/l): 5.5
- fungal growth inhibition (observed) ([2]; NIM1 overexpression line 7C, copper hydroxide 2.0 g/l): 77%
